# What was measured:
# [1] = target: T1, AMPfret 2.1 (UniProt O43741+P80385+Q09137); experiment: FRET assay with purified AMPfret 2.1 sensor (fluorimeter); format: binding, rat α2 and γ1, human β2; conditions: 50 μM A-769662 or 500 μM Metformin, compared with 20 μM AMP (FIG. 6)
# T1 construct: decaHis tag with TEV site (N); made in house; host or cells: E. coli BL21 (DE3) Star
# Description: The FRET ratio was calculated from fluorescence emission spectra excited at 430 nm. Data points correspond to mean±SEM (n>3).
# Structure and names of the molecules are given below the bars.
# (§1) FRET assay: FRET signal variation in presence of different compounds (nucleotides, chemicals, ions) was measured using a fluorimeter (Photon Technology International). AMPfret constructs (20 pmol) were incubated in a quartz cuvette in a final volume of 150 μL (spectro buffer: 50 mM Tris pH8, 200 mM NaCl, 5 mM MgCl2, 2 mM β-mercaptoethanol). Effects of nucleotides and others compounds (previously prepared in the spectro buffer) on the FRET ratio given by AMPfret sensor was determined by comparing FRET ratio (peak value at 527 nm/peak value at 476 nm) in presence or absence of the compounds. Excitation wavelength was set to 430 nm, and emission spectra were recorded from 450 to 600 nm with an integration time of 0.2 s. Mg^2+ effect on FRET was investigated in spectro buffer without Mg^2+.
# [2] = test system: AMPfret 2.1 in 3T3-L1 or HeLa cells; conditions: 1 mM AICAR
# Description: HeLa cells transfected with AMPFret 2.1 were exposed for 60 min to 1 mM AICAR. […] (b) Time course of the FRET signal. […] (c) AMPK activation at t=0 min and t=60 min. Phosphorylation of the AMPK substrate ACC as determined by immunoblotting (lower panel) and quantification of the resulting P-ACC/total ACC ratio (upper panel). P-ACC/total ACC ratios at t=0 and t=60 min are respectively represented as a white dotted bar and black dotted bar. Data correspond to mean±SEM (n=3).
# For cellular ex vivo experiments, subunits of the optimized construct AMPfret 2.1 were cloned in the vectors (pACEMam2, pMDS and pMDK) of the MultiMam expression system. Created plasmids were fused via their Lox-P site to yield to a single mammalian expression vector coding for the sensor AMPFret 2.1 according to well-known techniques to the skilled man in the art.
# 3T3-L1 and HeLa cells were cultivated in glucose containing DMEM (4.5 g/L) supplemented with SVF, glutamine, penicillin and streptomycin. Once cells reached around 80% confluence, medium was replaced by OptiMEM (Lifetechnologies) and AMPfret 2.1 coding plasmid was transfected using Lipofectamine2000 (Lifetechnologies). After 5 h, OptiMEM was exchanged by complete DMEM and cells grew for >36 h until their observations under the confocal microscope.
# LabTek plates were placed in an incubation chamber in which the temperature and O2 concentration were maintained at 37° C. and 21%, respectively. Without moving the Labtek, 200 μL medium was replaced by the same volume of complete medium containing 2 mM AICAR (1 mM final). Excitation wavelength was set to 458 nm and emission spectra showing FRET signal were monitored through A scans from 463 nm to 600 nm every 15 min. ROI (region of interest) were drawn in order to cover entire cells. FRET ratio variations were calculated from those measured emission spectra.
# AMPfret 2.1 was excited using a 458 nm laser and emission spectra showing FRET signal were monitored through A scans from 463 nm to 600 nm every 15 min.
# [3] = FRET signal variation of AMPfret constructs upon AMP/ADP binding; conditions: 3 mM ATP vs 20 μM AMP (FIG. 2)
# Excerpt: Top: Schema showing structural organization of the sensors. CFP and YFP are respectively represented as hatched- and dotted-circles. (a) Fluorescence emission spectra of AMPfret constructs excited at 430 nm. […] Data correspond to mean±SEM (AMPfret A: n=7; AMPfret C: n=10).
# Second generation of AMPfret constructs 1.1 and 2.1. based on constructs AMPfret C and A, respectively. Top: Schema showing structural organization of the sensors. Both optimized constructs contain mseCFPΔ11/cpVenus as GFP-derived fluorescent couple instead of CFP/YFP. mseCFPΔ11 and cpVenus are respectively represented as hatched- and checkered circles. […] (a) Fluorescence emission spectra of AMPfret constructs excited at 430 nm. […] Data correspond to mean±SEM (AMPfret 1.0: n=10; AMPfret 1.1: n=7); *=p<0.001 (significance assessed by a Student-Newman-Keuls test).
# as §1, with “AMPfret constructs (20 pmol) were incubated in a quartz cuvette in a final volume of 150 μL (spectro buffer: 50 mM Tris pH8, 200 mM NaCl, 5 mM MgCl2, 2 mM β-mercaptoethanol).” left out, “Mg^2+ effect on FRET was investigated in spectro buffer without Mg^2+.” left out
# T1 sequence (Q09137 1-550): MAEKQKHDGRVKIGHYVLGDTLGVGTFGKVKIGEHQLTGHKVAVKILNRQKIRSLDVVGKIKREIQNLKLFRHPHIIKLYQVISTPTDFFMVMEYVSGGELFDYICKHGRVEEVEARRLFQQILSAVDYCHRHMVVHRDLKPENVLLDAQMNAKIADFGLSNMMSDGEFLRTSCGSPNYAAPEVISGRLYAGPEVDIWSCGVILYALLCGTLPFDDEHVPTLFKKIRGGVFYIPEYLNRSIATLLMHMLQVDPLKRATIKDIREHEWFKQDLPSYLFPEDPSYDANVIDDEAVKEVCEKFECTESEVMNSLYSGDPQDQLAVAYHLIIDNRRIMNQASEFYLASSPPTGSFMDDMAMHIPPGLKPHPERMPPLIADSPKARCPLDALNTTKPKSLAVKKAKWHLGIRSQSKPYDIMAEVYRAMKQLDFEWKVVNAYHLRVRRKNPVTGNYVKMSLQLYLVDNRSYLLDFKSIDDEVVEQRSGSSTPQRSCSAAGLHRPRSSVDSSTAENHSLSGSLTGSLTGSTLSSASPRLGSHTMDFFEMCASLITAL
# T1 sequence (O43741 1-269): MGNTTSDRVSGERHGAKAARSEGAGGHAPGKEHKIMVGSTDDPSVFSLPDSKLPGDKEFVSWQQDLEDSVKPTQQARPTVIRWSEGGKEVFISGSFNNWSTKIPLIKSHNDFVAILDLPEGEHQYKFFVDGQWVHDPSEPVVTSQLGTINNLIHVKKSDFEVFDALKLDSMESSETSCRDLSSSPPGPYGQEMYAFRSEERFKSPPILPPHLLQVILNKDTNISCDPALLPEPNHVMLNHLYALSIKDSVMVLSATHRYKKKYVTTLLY
# T1 sequence (P80385 whole entry): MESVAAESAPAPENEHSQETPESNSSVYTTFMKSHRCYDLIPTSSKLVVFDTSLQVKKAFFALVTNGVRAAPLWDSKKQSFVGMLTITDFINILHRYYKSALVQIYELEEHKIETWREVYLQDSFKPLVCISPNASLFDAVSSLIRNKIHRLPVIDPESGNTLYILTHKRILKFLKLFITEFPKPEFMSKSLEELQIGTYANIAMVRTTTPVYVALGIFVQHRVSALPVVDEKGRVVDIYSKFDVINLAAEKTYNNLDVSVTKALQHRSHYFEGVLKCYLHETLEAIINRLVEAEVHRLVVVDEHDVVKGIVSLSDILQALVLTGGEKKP
Compound,FRET signal induced in AMPfret in vitro [1],difference in FRET signal depending on the presence of AMP or ADP [3],other results
N#Cc1c(O)c2c(-c3ccc(-c4ccccc4O)cc3)csc2[nH]c1=O [A-769662],induces a FRET signal comparable to AMP,–,–
"NC(=O)c1ncn([C@@H]2O[C@H](CO)[C@@H](O)[C@H]2O)c1N [AICAR, 5′-Aminoimidazole-4-carboxamide ribonucleoside]",–,–,"time to maximal effect on FRET signal [2]: about 30 minutes; AMPfret 2.1 FRET signal upon AICAR addition ([2]; 60 min, read every 15 min, HeLa and 3T3-L1 cells): increased with time; FRET response after 15 min of treatment ([2]; 15 min): More than half-maximal response; cpVenus peak (527 nm) in fluorescence emission spectra over time ([2]; HeLa cells transfected with AMPFret 2.1, 0, 15, 30 min): increase of cpVenus peak"
CN(C)C(=N)N=C(N)N [Metformin],did not induce any FRET variation,–,–
"AMPfret A: AMPK heterotrimer: rat alpha2-CFP (SEQ ID NO:5), human beta2-YFP (SEQ ID NO:11), rat gamma1 (SEQ ID NO:15)",–,~10%,–
"AMPfret C: AMPK heterotrimer: rat alpha2-CFP (SEQ ID NO:5), human beta2 (SEQ ID NO:9), rat gamma1-YFP (SEQ ID NO:21)",–,~10%,–
